Measured values reported in patent publication US10238614B2, “Uses of 6-aminohexanoic acid to manage bleeding conditions” (EMORY UNIVERSITY, priority 2013, dated 2019).

Experiments:
[1] = system: thrombocytopenic patients with hematological malignancies; assay: Retrospective study of prophylactic oral EACA in outpatients with chronic transfusion-dependent thrombocytopenia; type: in vivo, human
Excerpt: Patients were managed in the outpatient setting despite their severe thrombocytopenia and received EACA as a substitution for prophylactic, threshold directed platelet transfusion.
Patients with chronic transfusion dependent thrombocytopenia who received prophylactic EACA in the outpatient setting were identified through a computerized database search. After initiation of EACA, prophylactic threshold-driven platelet transfusion was discontinued and patients received only therapeutic platelet transfusion in case of bleeding, except when admitted to the inpatient ward. In the inpatient ward, prophylactic platelets were routinely infused when platelets were <10×10^9/L. The number of platelets transfused in the hospital in the absence of bleeding was censored. Patient demographics, diagnosis, treatment, platelet counts, duration of thrombocytopenia, transfusion history, bleeding and outcomes were captured onto study-specific case report forms. Bleeding was captured regardless of patient's location (out-patient or wards) and retrospectively scored based on the ITP WHO classification: grade 1=petechial bleed, grade 2=clinically mild blood loss, grade 3=gross blood loss requiring transfusion, and grade 4=retinal, cerebral, or debilitating blood loss. Statistics were descriptive.
Patients were monitored in the outpatient clinic, with a CBC obtained at least once a week.

[2] = system: patients with thrombocytopenic hemorrhage / severely thrombocytopenic patients with hematological malignancies; settings: cited from earlier work
[3] = ITP WHO bleeding classification grade, median (range)
[4] = severe and refractory thrombocytopenic patients not receiving prophylactic platelet transfusion

## NCCCCCC(=O)O [EACA, 6-aminohexanoic acid]
[1]; 1 gram orally twice daily, median 47 days
  tolerability: overall well tolerated
[1]; 18 of 44 patients
  patients who discontinued EACA due to platelet recovery: 41%
[1]; 44 patients
  discontinuation due to intolerance: no patients discontinued EACA due to intolerance
  venous thromboembolic event: No patient experienced a venous thromboembolic event
[1]; 44 patients, EACA 1 gram orally twice daily, no prophylactic platelet transfusions, 7/44
  patients who received platelet transfusions while on EACA: 16%
[1]; [3]
  median bleeding score for the 19 minor bleeding events: 1 (1-2)
  median score for the 10 bleeding episodes treated with transfusion: 2 (2-4)
[1]; eleven of 44 patients
  patients with minor mucocutaneous bleeding that resolved spontaneously and did not require platelet transfusions: 25%
[1]; hematochezia from a pre-existing rectal ulcer
  patients with grade 3 bleeding: 1 patient
[1]; in 7/44 patients while on EACA
  bleeding episodes treated with platelet transfusions: 10
[1]; in eleven patients, epistaxis, bruises, oral, vaginal
  episodes of minor mucocutaneous bleeding that resolved spontaneously: 19 episodes
[1]; in the other 5 patients: hemorrhoid, epistaxis, oral, bladder and vaginal
  grade 2 mucocutaneous bleeds requiring transfusion: 8
[1]; in the setting of a trauma and from a pre-existing condition
  grade 3-4 bleedings: Two
[1]; median platelet counts 8×10^9/L, no prophylactic platelet transfusions, median 47 days, up to 209 days
  major spontaneous bleeds: no major spontaneous bleeds were observed
[1]; of the 10 platelet refractory patients, mucocutaneous (3 grade 1, 5 grade 2 and 1 grade 3)
  platelet refractory patients with bleeding episodes: 4
[1]; one of 44 patients
  patients who discontinued EACA due to the onset of hematuria: 2%
[1]; [4]
  overall safety: safe
  risk of major spontaneous bleeding: low risk of major spontaneous bleeding
[1]; shortly after initiation of EACA
  patient-reported effect on petechiae and subcutaneous bleeds: rapid disappearance of petechiae and resolution of subcutaneous bleeds
[1]; summary statement, 16% of patients transfused
  median platelet transfusions in transfused patients: 4 units
[1]; the 7 transfused patients, median (range)
  median number of platelets transfusions received to treat bleeding episodes: 4 (range, 1-8)
[1]; traumatic intracranial hemorrhage secondary to motor vehicle accident
  patients with grade 4 bleeding: 1 patient
[2]; patients with thrombocytopenic hemorrhage, Kalmadi et al., Cancer 2006
  effect on transfusion requirements: reduces transfusion requirements
[2]; severely thrombocytopenic patients with hematological malignancies, Antun et al., Cancer 2013
  effect on bleeding: prevents bleeding
